Source: article PMC9573548, “Metabolic Profiling by GC-MS, In Vitro Biological Potential, and In Silico Molecular Docking Studies of Verbena officinalis” (Molecules, 2022)

System: T1, urease
T1 construct: jack bean is only the usual preparation; docking model 1E9Z (Helicobacter pylori) is not the assayed enzyme
Test: indophenol (phenol-hypochlorite) ammonia assay, […] nm
Assay type: biochemical
Conditions: urea substrate (2.25% solution), phosphate buffer pH 7.0, room temperature, 15 min preincubation

SMILES: NC(=O)NO [hydroxy urea]
- Urease IC50: 9.8 ± 1.20 µg/mL
